Source: patent US6608032B1, “Medicinal compositions” (Takara Shuzo Co., Ltd., priority 1999, dated 2003)

What was measured:
RAW264.7 cells [1] = assay: NO production induced by LPS and IFN-γ in RAW264.7 cells (NO2− in medium, Griess); format: cell-based; conditions: 10 μl of 5 mM oligosaccharide solution per 500 μl well, added 0.5 or 5 hours before LPS and IFN-γ; 12 hours; FIG. 1
Description: RAW264.7 cells (ATCC TIB 71) were suspended in Dulbecco's modified Eagle's medium (Bio Whittaker, 12-917F) without Phenol Red containing 10% fetal calf serum and 2 mM L-glutamine (Life Technologies Oriental, Code. 25030-149) at a concentration of 3×10^5 cells/ml. 500 μl of the suspension was added to each well of a 48-well microtiter plate and the plate was incubated at 37° C. for 6 hours in the presence of 5% CO2. 10 μl of a filter-sterilized oligosaccharide solution containing agarobiose, agarotetraose or agarohexaose prepared in Referential Example 1 at a concentration of 5 mM in water was added to the well. The plate was incubated for additional 0.5 or 5 hours. 10 μl of aqueous solution containing lipopolysaccharide (LPS, Sigma, Code. L-2012) at a concentration of 5 μg/ml and interferon-γ (IFN-γ, sold by Cosmobio, Code. GZM-MG-IFN) at a concentration of 2000 U/ml was added to the well. The plate was incubated for additional 12 hours. The concentration of […] resulting from oxidation of NO in the medium was then measured.
As control groups, a group to which LPS or IFN-γ was not added and a group to which agarobiose, agarotetraose or agarohexaose was not added were provided.
After cultivation, 100 μl of 4% Griess' reagent (Sigma, Code. G4410) was added to 100 μl of the culture supernatant, and the mixture was allowed to stand for 15 minutes at room temperature. The absorbance at 490 nm was then measured. NO2^− concentration in the medium was calculated with reference to a calibration curve prepared by using NaNO2 dissolved in the same medium at a predetermined concentration. All of the measurements were carried out in triplicate.

HL-60 Nu cells = assay: TPA-induced intracellular peroxides in HL-60 Nu (neutrophil-like) cells; format: cell-based; conditions: 50 μl of 5 mM solution, 2 hours before TPA; 5 hours; FIG. 2
Description: HL-60 cells were added to RPMI 1640 medium (Bio Whittaker, Code. 12-702F) containing 10% fetal calf serum and 1.3% dimethyl sulfoxide (Dojindo Laboratories, Code. 346-03615) and cultured at 37° C. for 1 week in the presence of 5% CO2 to prepare cells differentiated into neutrophil-like cells (hereinafter referred to as HL-60 Nu).
Agarobiose, agarotetraose or agarohexaose obtained in Referential Example 1 was dissolved in water at a concentration of 5 mM. The solution was sterilized by filtration. HL-60 Nu cells were suspended in RPMI 1640 medium containing 10% fetal calf serum at a concentration of 2.5×10^5 cells/2.4 ml. 50 μl of one of the oligosaccharide aqueous solutions was added to a well containing the cells. The cells were cultured at 37° C. for 2 hours in the presence of 5% CO2. Then, 50 μl of a solution containing phorbol 12-myristate 13-acetate (TPA, Gibco, Code. 13139-019) at a concentration of 5 mg/ml in water was added the well. After the cells were cultured for additional 5 hours, intracellular peroxides were determined. As control groups, a group to which TPA was not added and a group to which agarobiose, agarotetraose or agarohexaose as not added were provided.
After cultivation, 10 μl of a solution containing 2′,7′-dichlorofluorescein diacetate (Sigma, Code. D6833) at a concentration of 5 mM in dimethyl sulfoxide was added to the well. The cells were cultured for additional 30 minutes. The cells were then collected by centrifugation and washed twice in phosphate buffered saline. 2′, 7′-dichlorofluorescein, which is generated in proportion to the amount of intracellular peroxides, was determined using FACScan as described in Saibo Kogaku, Bessatsu (Cell Technology, Suppl.) Jikken Protocol Series: Kassei Sanso Jikken Protocol (Experimental Protocol Series: Experimental Protocols for Active Oxigen) (1994, Shujun-sha) pp. 51-54.

α-glucosidase = α-glucosidase inhibition with p-nitrophenyl-α-D-glucopyranoside; format: biochemical, S. cerevisiae
Description: (1) An α-glucosidase activity was measured by allowing α-glucosidase to act on p-nitrophenyl-α-D-glucopyranoside (a chromogenic substrate) and calorimetrically quantifying 4-nitrophenol released by hydrolysis.
10 μl of α-glucosidase solution [40 mU/ml, derived from S. cerevisiae, Sigma, dissolved in 10 mM phosphate buffer (pH 7.2 at 37° C.)] and 10 μl of a solution containing a test sample dissolved in 10 mM phosphate buffer (pH 7.2 at 37° C.) were mixed. 80 μl of a 1.5 mg/ml substrate solution [Sigma, dissolved in 10 mM phosphate buffer (pH 7.2 at 37° C.)] was added thereto to initiate the reaction. After reacting at 37° C. for 40 minutes, the absorbance at 410 nm was measured using Shimadzu uv2200. The remaining activity therein was calculated defining the activity observed without the addition of test sample as 100%.
Agarobiose, agarotetraose, agarohexaose and agarooctaose used as test samples were those prepared in Referential Example 1. Commercially available products of anhydrogalactose (Funakoshi), neoagarobiose (Sigma), neoagarotetraose (Funakoshi) and neoagarohexaose (Funakoshi) were used.

RAW264.7 cells [2] = assay: LPS-induced prostaglandin E2 production in RAW264.7 cells; format: cell-based; conditions: 10 μl of 5 mM solution per 500 μl well, 0.5 or 5 hours before LPS; 12 hours; FIG. 3
Description: RAW264.7 cells (ATCC TIB 71) were suspended in Dulbecco's modified Eagle's medium (Bio Whittaker, Code. 12-604F) containing 10% fetal calf serum at a concentration of 3×10^5 cells/ml. 500 μl of the suspension was added to each well of a 48-well microtiter plate and the plate was incubated at 37° C. for 6 hours in the presence of 5% CO2. 10 μl of a filter-sterilized agarooligosaccharide solution containing agarobiose, agarotetraose or agarohexaose prepared in Referential Example 1 at a concentration of 5 mM in water was added to the well. The plate was incubated for additional 0.5 or 5 hours. 10 μl of 50 μg/ml LPS aqueous solution was then added to the well. After the plate was incubated for additional 12 hours, the amount of prostaglandin E2 was measured. As control groups, a group to which LPS was not added and a group to which agarobiose, agarotetraose or agarohexaose was not added were provided.
After cultivation, the amount of prostaglandin E2 in the culture supernatant was measured using Prostaglandin E2 ELISA Kit (Neogen, Code. 404110). All of the measurements were carried out in triplicate.

SMILES	NO production induced by LPS and IFN-γ (RAW264.7 cells [1])	TPA-induced generation of intracellular peroxides (HL-60 Nu cells)	Activity of inhibiting α-glucosidase (% remaining activity) (α-glucosidase; 5 μM)	Activity of inhibiting α-glucosidase (% remaining activity) (α-glucosidase; 50 μM)	Activity of inhibiting α-glucosidase (% remaining activity) (α-glucosidase; 500 μM)	Activity of inhibiting α-glucosidase (% remaining activity) (α-glucosidase; 1000 μM)	Activity of inhibiting α-glucosidase (% remaining activity) (α-glucosidase; 5000 μM)	prostaglandin E2 production induced by LPS (RAW264.7 cells [2])
OCC1OC(OC2C3COC2C(O)C(OC2C(O)C(CO)OC(OC4C5COC4C(O)C(O)O5)C2O)O3)C(O)C(O)C1O (stereo not drawn) [Agarotetraose, agarotetraose]	inhibited NO production induced by LPS and IFN-γ	Slight inhibition	100%	97%	75%	32%	20%	inhibited the prostaglandin E2 production induced by LPS
OC[C@H]1O[C@@H](O[C@H]2[C@H]3OC[C@@H]2OC(O)[C@H]3O)[C@H](O)[C@@H](O)[C@H]1O (mixture of isomers) [Agarobiose, agarobiose]	inhibited NO production induced by LPS and IFN-γ	Slight inhibition	100%	100%	100%	100%	100%	inhibited the prostaglandin E2 production induced by LPS
OCC1OC(OC2C3COC2C(O)C(OC2C(O)C(CO)OC(OC4C5COC4C(O)C(OC4C(O)C(CO)OC(OC6C7COC6C(O)C(O)O7)C4O)O5)C2O)O3)C(O)C(O)C1O (stereo not drawn) [Agarohexaose, agarohexaose]	inhibited NO production induced by LPS and IFN-γ	inhibition of TPA-induced generation of intracellular peroxides was observed	91%	91%	47%	35%	7%	inhibited the prostaglandin E2 production induced by LPS
